Peptide text beside a SMILES is read from it.
Key:
[1] = Elimination from the blood; format: in vivo; details: no method described
[2] = test system: thrombin time; assay: Thrombin time test; details: stated as 'could be caused'; no experiment described
[3] = biological target: T1, batroxobin fibrin monomer (Homo sapiens, UniProt P02671+P02675+P02679); assay: Inhibition of fibrin monomer polymerization (absorbance at 350 nm), batroxobin fibrin monomer; format: biochemical
T1 construct: fibrin monomer which was formed by batroxobin (lacking fibrinopeptide A); made in house; host or cells: not recombinant: made from fibrinogen by treatment with batroxobin (Bothrops atrox venom enzyme)
T1 sequence (P02671 36-629 isoform P02671-2): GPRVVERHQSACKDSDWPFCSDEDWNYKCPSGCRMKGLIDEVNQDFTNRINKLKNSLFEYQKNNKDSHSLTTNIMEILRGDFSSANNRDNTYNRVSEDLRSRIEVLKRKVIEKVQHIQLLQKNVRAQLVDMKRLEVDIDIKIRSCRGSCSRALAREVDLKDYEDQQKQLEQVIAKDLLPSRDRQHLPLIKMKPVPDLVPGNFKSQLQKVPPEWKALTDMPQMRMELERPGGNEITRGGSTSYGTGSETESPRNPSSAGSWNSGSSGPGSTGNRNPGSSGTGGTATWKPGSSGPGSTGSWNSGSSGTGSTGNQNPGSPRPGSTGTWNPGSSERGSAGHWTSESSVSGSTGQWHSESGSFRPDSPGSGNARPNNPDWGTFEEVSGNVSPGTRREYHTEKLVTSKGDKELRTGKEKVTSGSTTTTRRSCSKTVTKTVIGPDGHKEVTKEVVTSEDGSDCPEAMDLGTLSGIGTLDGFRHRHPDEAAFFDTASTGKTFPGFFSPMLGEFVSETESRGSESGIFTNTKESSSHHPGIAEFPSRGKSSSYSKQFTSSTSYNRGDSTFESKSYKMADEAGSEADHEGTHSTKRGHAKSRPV
T1 sequence (P02675 31-491): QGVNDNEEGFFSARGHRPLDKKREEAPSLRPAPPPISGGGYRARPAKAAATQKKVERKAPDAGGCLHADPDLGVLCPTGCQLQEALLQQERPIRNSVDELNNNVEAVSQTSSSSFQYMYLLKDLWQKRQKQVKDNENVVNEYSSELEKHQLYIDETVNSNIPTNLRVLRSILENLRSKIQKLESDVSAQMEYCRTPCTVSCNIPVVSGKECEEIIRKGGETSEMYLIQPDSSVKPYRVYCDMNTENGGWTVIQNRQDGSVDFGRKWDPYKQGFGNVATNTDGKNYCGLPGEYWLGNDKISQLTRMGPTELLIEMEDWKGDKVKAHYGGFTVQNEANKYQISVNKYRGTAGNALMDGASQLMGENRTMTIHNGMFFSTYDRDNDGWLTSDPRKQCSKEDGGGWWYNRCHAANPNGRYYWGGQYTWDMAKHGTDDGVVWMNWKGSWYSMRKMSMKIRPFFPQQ
T1 sequence (P02679 27-437 isoform P02679-2): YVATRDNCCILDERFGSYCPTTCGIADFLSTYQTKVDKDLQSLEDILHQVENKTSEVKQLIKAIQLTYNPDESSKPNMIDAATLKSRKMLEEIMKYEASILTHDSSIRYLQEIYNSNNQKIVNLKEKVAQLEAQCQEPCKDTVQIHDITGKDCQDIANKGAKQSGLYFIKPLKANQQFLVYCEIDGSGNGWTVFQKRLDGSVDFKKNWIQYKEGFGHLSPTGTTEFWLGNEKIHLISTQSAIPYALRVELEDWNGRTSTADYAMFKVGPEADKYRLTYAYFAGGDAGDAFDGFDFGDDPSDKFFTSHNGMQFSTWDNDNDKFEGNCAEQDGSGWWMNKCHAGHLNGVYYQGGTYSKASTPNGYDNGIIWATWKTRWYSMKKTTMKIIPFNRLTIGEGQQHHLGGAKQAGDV
Description: Fibrin monomer was prepared according to the method of Belitser et al, Biochem. Biophys. Acta 154, 367-375 (1968) using either thrombin or batroxobin (an enzyme from the venom of Bothrops atrox). The polymerization of fibrin monomer which was formed by batroxobin (lacking fibrinopeptide A) or by thrombin (lacking fibrinopeptides A and B) was inhibited by D1 Peptide. Polymerization was measured spectrophotometrically at 350 nm as has been described in Budzynski, Biochem. Biophys. Acta 584, 284-287 (1979). […] At zero time the recorder was started and 0.01 ml of fibrin monomer (1.5 mg/ml in 0.02M acetic acid) was added, the cells were inverted, and the increase in absorbance at 350 nm was measured continuously for 15 min or until plateau levels were reached. For batroxobin fibrin monomer 0.15 ml of buffer or buffer containing D1 Peptide was mixed with 0.05 ml of batroxobin fibrin monomer (1.5 mg/ml in 0.02M acetic acid). The initial rate of polymerization was calculated from the slope of the steepest part of the curve and expressed as the increase in absorbance per min (A350 ·min^-1).
In order to assess the effect of D1 Peptide on fibrin monomer polymerization over a wide range of concentrations, batroxobin fibrin monomer concentration was varied from 3.3×10^-8 M to 1.75×10^-7 M and the maximum rate of polymerization measured in the absence or presence of 2.5×10^-7 M D1 Peptide (FIG. 5). […]

In the case of `CC[C@H](C)[C@H](NC(=O)[C@H](CCCCN)NC(=O)[C@H](CCSC)NC(=O)[C@@H](NC(=O)[C@@H](NC(=O)[C@H](CCCCN)NC(=O)[C@H](CCCCN)NC(=O)[C@H](CCSC)NC(=O)[C@H](CO)NC(=O)[C@H](Cc1ccc(O)cc1)NC(=O)[C@H](Cc1c[nH]c2ccccc12)NC(=O)[C@H](CCCNC(=N)N)NC(=O)[C@@H](N)[C@@H](C)O)[C@@H](C)O)[C@@H](C)O)C(=O)N[C@H](C(=O)N1CCC[C@H]1C(=O)N[C@@H](Cc1ccccc1)C(=O)N[C@@H](CC(N)=O)C(=O)N[C@@H](CCCNC(=N)N)C(=O)N[C@@H](CC(C)C)C(=O)N[C@H](C(=O)N[C@H](C(=O)NCC(=O)N[C@@H](CCC(=O)O)C(=O)NCC(=O)N[C@@H](CCC(N)=O)C(=O)N[C@@H](CCC(N)=O)C(=O)N[C@@H](Cc1c[nH]cn1)C(=O)N[C@@H](Cc1c[nH]cn1)C(=O)N[C@@H](CC(C)C)C(=O)NCC(=O)NCC(=O)N[C@@H](C)C(=O)N[C@@H](CCCCN)C(=O)N[C@@H](CCC(N)=O)C(=O)N[C@@H](C)C(=O)NCC(=O)N[C@@H](CC(=O)O)C(=O)N[C@H](C(=O)O)C(C)C)[C@@H](C)CC)[C@@H](C)O)[C@@H](C)CC` [D1 Peptide] (H-TRWYSMKKTTMKIIPFNRLTIGEGQQHHLGGAKQAGDV-OH), the “elimination from the blood” value [1] is reported as “rapidly eliminated”, the “blood concentration causing a 50% increase in thrombin time” value [2] is reported as “about 4.4×10^-6 M” and the “mode of inhibition of polymerization” value ([3]; batroxobin fibrin monomer 3.3×10^-8 M to 1.75×10^-7 M) is reported as “competitive inhibitor”. For the same compound, the “concentration of fibrin monomer necessary to achieve the same rate of polymerization (apparent [FM])” value ([3]; maximum rate 0.2 A350·min^-1, D1 Peptide 2.6×10^-7 M, 7.8×10^-8 M without peptide) was 142 nM.
